Data as given in patent US7517858B1, “Prodrugs of pharmaceuticals with improved bioavailability” (The Regents of the University of California, priority 1995, dated 2009).
“Also recorded” adds a separate entry of the source.

Columns and labels:
[1] = tested on: human cytomegalovirus (HCMV); test: Human cytomegalovirus (HCMV) antiviral susceptibility assay (HCMV DNA hybridization in MRC-5 cells); format: cell-based; conditions: for IC50: HCMV-infected MRC-5 human lung fibroblasts, HCMV DNA after 5 days, mean ± SD (n); for antiviral activity compared in words: comparison with PFA / B-PFA
Description: Subconfluent MRC-5 cells in 24-well culture dishes were pretreated for 24 hours with various concentrations of drug in MEM medium containing 2% FBS and antibiotics. The media was removed and virus added at a dilution that will result in a 3-4+ cytopathic effect (CPE) in the no-drug wells in five days. This was absorbed for 1 hour at 37° C., aspirated and replaced with the drug dilutions. After five days of incubation HCMV DNA was quantified in triplicate by nucleic acid hybridization using a CMV AntiviraL Susceptibility Test Kit from Diagnostic Hybrids, Inc. (Athens, Ohio). The media was removed and cells lysed according to the manufacturer's instructions.
After absorption of the lysate, the Hybriwix™ filters were hybridized overnight at 60° C. The Hybriwix™ were washed for 30 minutes at 73° C. and counted in a gamma counter. The results are expressed as HCMV DNA as a percentage of the untreated HCMV-infected control cells.

[2] = tested on: Rauscher leukemia virus complex (RLV); test: Treatment of Rauscher leukemia virus-infected mice (spleen weight); format: in vivo; conditions: for effective doses (ED50): RLV-infected BALB/C mice, 21 days oral, prodrug by gavage once a day, AZT in drinking water, spleen weight day 23
Text: 1-O-Octadecyl-sn-glycero-3-phospho-AZT was compared to free AZT in treating mice infected with Rauscher murine leukemia virus (RLV). RLV is a murine retrovirus, and RLV-infected mice are useful as a model system for evaluating therapeutic effectiveness of candidate anti-AIDS drugs against retrovirus induced disease in vivo. […] Effective antiviral agents inhibit the splenomegaly, and a reduction in organ weight correlates with the elimination of virus (Ruprecht, R., et al., Nature 323:467-469 (1986)). […] The closest practical approach to optimum administration is the intake of AZT in drinking water.
Female BALB/C mice were infected with 1×10^4 plaque-forming units (PFU) of Rauscher leukemia virus complex (RLV) on day 0. Control animals were injected with saline. Beginning on day 2, groups of the infected mice as indicated in FIG. 1 were treated with AZT at doses from about 11.0 mg/kg/day to 15.0 mg/kg/day for 21 days either by offering AZT in drinking water or by gavaging with 1-O-octadecyl-sn-glycero-3-P-AZT once a day. On day 23 post-inoculation, the mice in both treatment protocols were sacrificed, and the spleen weights of the animals were determined. The mean spleen weights, indicating relative level of virus infection, for each dose level in the two protocols, are represented in the bar graphs of FIG. 1.

[3] = Tissue distribution 24 h after oral administration of 14C-PFA lipid prodrugs to mice; format: in vivo; conditions: oral gavage 20 mg/kg in liposomes, 14C radioactivity (FIG. 2)
Description: 1-O-Octadecyl-sn-glycero-3-PFA[^14C] and 1-O-octadecyl-2-O-methyl-sn-glycero-3-PFA[^14C] (30 microcuries/micromole) were dried with dioleoylphosphatidylcholine/cholesterol/drug in a molar ratio of 60/30/10 in a nitrogen stream, lyophilized overnight and isotonic sorbitol was added. After vortexing and warming, the vessel was sonicated at maximum output in a Heat Systems cup and horn sonicator for one hour. The resulting liposome preparation was filtered through a 0.2 micron filter and administered to mice by oral gavage in a dose of 20 mg/kg of the respective PFA lipid prodrugs. After 24 hours the animals were sacrificed and tissues removed, blotted dry, weighed and homogenized. Aliquots were counted and the amount of radioactivity determined. The results are expressed as nanomoles of lipid prodrug PFA[^14C] per gm tissue.

[4] = tested on: human immunodeficiency virus-1; test: Plaque reduction assay for HIV-1 replication in HT4-6C cells; format: cell-based; conditions: comparison with PFA / B-PFA / BB-PFA
Description: HT4-6C cells and plaque reduction assay, CD4-expressing HeLa cells, HT4-6C cells (Chesebro, B. and K. Wehrly (1988) J. Virol. 62:3779-3788), were obtained from Bruce Chesebro, Hamilton, Mont. The effect of antiviral compounds on HIV replication was measured by a plaque reduction assay. Briefly, monolayers of HT4-6C cells were infected with 100 to 300 PFU of virus per well in 24-well microdilution plates. Various concentrations of drug were added to the culture medium, Dulbecco's Modified Eagle Medium containing 5% fetal bovine serum and antibiotics, as noted above. After 3 days at 37° C., the monolayers were fixed with 10% formaldehyde solution in phosphate-buffered saline and stained with 0.25% crystal violet to visualize virus plaques (Larder, B. et al. (1989) Science 243:1731-1734). Antiviral activity was assessed as the percentage of control Plaques measured in drug-treated samples.

HSV-1 virus = test: HSV antiviral susceptibility assay (HSV DNA hybridization in MRC-5 cells); format: cell-based, human herpes simplex virus 1; conditions: comparison with PFA / B-PFA
Description: Subconfluent MRC-5 cells in 24-well culture dishes were inoculated by removing the media and adding HSV-1 virus at a dilution that will result in a 3-4+CPE in the no-drug well in 20-24 hours. This was absorbed for 1 hour at 37° C., aspirated and replaced with various concentrations of drugs in MEM medium containing 2% FBS and antibiotics. After approximately 24 hours of incubation, HSV DNA was quantified in triplicate by nucleic acid hybridization using a HSV Antiviral Susceptibility Test Kit from Diagnostic Hybrids, Inc. (Athens, Ohio). The media was removed and cells lysed according to the manufacturer's instructions. After absorption of the lysate, the Hybriwix™ filters were hybridized overnight at 60° C. The Hybriwix™ were washed for 30 minutes at 73° C. and counted in a gamma counter. The results are expressed as a percentage of the untreated HSV-infected control cells.

| SMILES | IC50 [1] [µM] | antiviral activity compared in words ([1]; HCMV) | effective doses (ED50) [2] | tissue levels of drug [3] | further results |
| --- | --- | --- | --- | --- | --- |
| CCCCCCCCCCCCCCCCCCOCC(COP(=O)(O)C(=O)O)(OC)OC [ODDMOP-PFA, 1-O-octadecyl-2,2-dimethoxypropane-3-phosphonoformate] | 0.22 ± 0.14 | substantially more active |  |  | FOLD INCREASE IN ACTIVITY ([1]; versus PFA, HCMV): 209 fold |
| Cc1cn([C@H]2C[C@H](N=[N+]=[N-])[C@@H](CO)O2)c(=O)[nH]c1=O [AZT, 3′-azido-3′-deoxythymidine, reference compound] |  |  | comparable |  |  |
| CCCCCCCCCCCCCCCCCCOC[C@@H](O)COP(=O)(O)C(=O)O [B-PFA, 1-O-octadecyl-sn-glycero-3-phosphonoformate] |  |  |  | lower levels of drug in most tissues studied including liver, spleen, jejunum and ileum |  |
| CCCCCCCCCCCCCCCCCCOC[C@H](COP(=O)(O)C(=O)O)OC [MB-PFA, 1-O-octadecyl-2-O-methyl-sn-glycero-3-phosphonoformate] |  | equivalent in antiviral activity to B-PFA |  | higher tissue levels of drug were observed in liver, spleen, lung, brain, kidney and lymph node | antiviral activity compared in words [4]: significantly more active than B-PFA and BB-PFA; also recorded: more active than B-PFA to a statistically significant degree; antiviral activity compared in words (HSV-1 virus): more active than B-PFA; drug levels in the small intestine [3]: lower in the small intestine |
| CCCCCCCCCCCCCCCCCCOC[C@H](COP(=O)(O)C(=O)O)OCc1ccccc1 [BB-PFA, 1-O-octadecyl-2-O-benzyl-sn-glycero-3-phosphonoformate] | 0.54 ± 0.65 | equivalent in antiviral activity to B-PFA |  |  |  |
| CCCCCCCCCCCCCCCCCCOC[C@@H](O)COP(=O)(O)OC[C@H]1O[C@@H](n2cc(C)c(=O)[nH]c2=O)C[C@@H]1N=[N+]=[N-] [1-O-octadecyl-sn-glycero-3-P-AZT, 1-O-Octadecyl-sn-glycero-3-phospho-3′-azido-3′-deoxythymidine] |  |  | comparable |  | inhibition of splenomegaly, effectiveness ([2]; RLV-infected mice, once a day gavage versus free AZT in drinking water (FIG. 1)): as effective, in comparable doses, as virtually continuous free AZT administration |
